≈ marks a conversion by molar mass, not a printed value.
Experiments:
Assay type in all cases: functional
Candida albicans = test: Antifungal activity against Candida albicans by serial dilution method
Aspergillus fumigatus = test: Antifungal activity against Aspergillus fumigatus by serial dilution method
Trichophyton rubrum = test: Antifungal activity against Trichophyton rubrum by serial dilution method
Nannizzia gypsea = test: Antifungal activity against Microsporum gypseum by serial dilution method
Cryptococcus neoformans = test: Antifungal activity against Cryptococcus neoformans by serial dilution method
Candida tropicalis = test: Antifungal activity against Candida tropicalis by serial dilution method
Candida parapsilosis = test: Antifungal activity against Candida parapsilosis by serial dilution method; conditions: Lodderomyces parapsilosis

SMILES | MIC80 (Candida albicans) | MIC80 (Aspergillus fumigatus) | MIC80 (Trichophyton rubrum) | MIC80 (Nannizzia gypsea) | MIC80 (Cryptococcus neoformans) | MIC80 (Candida tropicalis) | MIC80 (Candida parapsilosis)
Fc1ccc(OCc2cc3c(OCCCNCc4cccnc4)cccc3[nH]2)cc1 | > 128 µg/mL | > 128 µg/mL | 128 µg/mL (≈ 316 µM) | 32 µg/mL (≈ 78.9 µM) | 128 µg/mL (≈ 316 µM) |  | 
c1ccc(SCc2cc3c(OCCCNCc4cccnc4)cccc3[nH]2)cc1 | 128 µg/mL (≈ 317 µM) | > 128 µg/mL | 64 µg/mL (≈ 159 µM) | 8 µg/mL (≈ 19.8 µM) | 64 µg/mL (≈ 159 µM) |  | 
Clc1cccc(Cl)c1SCc1cc2c(OCCCNCc3cccnc3)cccc2[nH]1 | 64 µg/mL (≈ 135 µM) | > 128 µg/mL | 16 µg/mL (≈ 33.9 µM) | 4 µg/mL (≈ 8.47 µM) | 64 µg/mL (≈ 135 µM) |  | 
O=C(Nc1cccc(F)c1)c1cc2c(OCCCNCc3cccnc3)cccc2[nH]1 | 128 µg/mL (≈ 306 µM) | > 128 µg/mL | 64 µg/mL (≈ 153 µM) | 32 µg/mL (≈ 76.5 µM) | 128 µg/mL (≈ 306 µM) |  | 
O=C(Nc1ccc(Cl)cc1)c1cc2c(OCCCNCc3cccnc3)cccc2[nH]1 | > 128 µg/mL | > 128 µg/mL | 128 µg/mL (≈ 294 µM) | 32 µg/mL (≈ 73.6 µM) | > 128 µg/mL |  | 
O=C(Nc1ccccc1)c1cc2c(OCCCNCc3cccnc3)cccc2[nH]1 | > 128 µg/mL | > 128 µg/mL | 64 µg/mL (≈ 160 µM) | 32 µg/mL (≈ 79.9 µM) | > 128 µg/mL |  | 
O=C(Nc1ccc(F)c(F)c1)c1cc2c(OCCCNCc3cccnc3)cccc2[nH]1 | > 128 µg/mL | > 128 µg/mL | 32 µg/mL (≈ 73.3 µM) | 16 µg/mL (≈ 36.7 µM) | 128 µg/mL (≈ 293 µM) |  | 
O=C(Nc1ccccc1Cl)c1cc2c(OCCCNCc3cccnc3)cccc2[nH]1 | > 128 µg/mL | > 128 µg/mL | 128 µg/mL (≈ 294 µM) | 2 µg/mL (≈ 4.6 µM) | > 128 µg/mL |  | 
Fc1ccccc1OCc1nc2c(OCCCNCc3cccnc3)cccc2o1 | 4 µg/mL (≈ 9.82 µM) | > 64 µg/mL |  |  | 16 µg/mL (≈ 39.3 µM) | 0.0625 µg/mL (≈ 0.153 µM) | 1 µg/mL (≈ 2.45 µM)
Fc1ccc(OCc2nc3c(OCCCNCc4cccnc4)cccc3o2)cc1 | 16 µg/mL (≈ 39.3 µM) | > 64 µg/mL |  |  | 16 µg/mL (≈ 39.3 µM) | 1 µg/mL (≈ 2.45 µM) | 1 µg/mL (≈ 2.45 µM)
c1ccc(OCc2nc3c(OCCCNCc4cccnc4)cccc3o2)cc1 | 16 µg/mL (≈ 41.1 µM) | > 64 µg/mL |  |  | 64 µg/mL (≈ 164 µM) | 0.25 µg/mL (≈ 0.642 µM) | 1 µg/mL (≈ 2.57 µM)
Fc1ccc(OCc2nc3c(OCCCNCc4cccnc4)cccc3o2)c(F)c1 | 1 µg/mL (≈ 2.35 µM) | > 64 µg/mL |  |  | 16 µg/mL (≈ 37.6 µM) | 1 µg/mL (≈ 2.35 µM) | 0.25 µg/mL (≈ 0.588 µM)
Fc1cccc(F)c1OCc1nc2c(OCCCNCc3cccnc3)cccc2o1 | 64 µg/mL (≈ 150 µM) | > 64 µg/mL |  |  | 64 µg/mL (≈ 150 µM) | 1 µg/mL (≈ 2.35 µM) | 4 µg/mL (≈ 9.4 µM)
Fc1ccc(OCc2nc3c(OCCCNCc4cccnc4)cccc3o2)c(F)c1F | 0.25 µg/mL (≈ 0.564 µM) | > 64 µg/mL |  |  | 64 µg/mL (≈ 144 µM) | 0.25 µg/mL (≈ 0.564 µM) | 0.25 µg/mL (≈ 0.564 µM)
Fc1cc(F)c(OCc2nc3c(OCCCNCc4cccnc4)cccc3o2)c(F)c1 | 16 µg/mL (≈ 36.1 µM) | 64 µg/mL (≈ 144 µM) |  |  | 16 µg/mL (≈ 36.1 µM) | 1 µg/mL (≈ 2.26 µM) | 1 µg/mL (≈ 2.26 µM)
O=[N+]([O-])c1cccc(OCc2nc3c(OCCCNCc4cccnc4)cccc3o2)c1 | > 64 µg/mL | > 64 µg/mL |  |  | > 64 µg/mL | 0.25 µg/mL (≈ 0.575 µM) | 4 µg/mL (≈ 9.21 µM)
CCOC(=O)c1cc2c(OCCCNCc3cccnc3)cccc2[nH]1 | > 128 µg/mL | > 128 µg/mL | 64 µg/mL (≈ 181 µM) | 32 µg/mL (≈ 90.5 µM) | > 128 µg/mL |  | 
Fc1ccc(OCc2cc3c(OCCCNCc4cccnc4)cccc3[nH]2)c(F)c1 | > 128 µg/mL | > 128 µg/mL | 32 µg/mL (≈ 75.6 µM) | 8 µg/mL (≈ 18.9 µM) | 64 µg/mL (≈ 151 µM) |  | 
CCOC(=O)c1oc2cccc(OCCCNCc3cccnc3)c2c1C | 1 µg/mL (≈ 2.71 µM) | > 64 µg/mL | 4 µg/mL (≈ 10.9 µM) | 4 µg/mL (≈ 10.9 µM) | 64 µg/mL (≈ 174 µM) | 1 µg/mL (≈ 2.71 µM) | 4 µg/mL (≈ 10.9 µM)
Cc1c(COc2ccc(F)c(F)c2F)oc2cccc(OCCCNCc3cccnc3)c12 | 0.125 µg/mL (≈ 0.274 µM) | 16 µg/mL (≈ 35.1 µM) | 1 µg/mL (≈ 2.19 µM) | 2 µg/mL (≈ 4.38 µM) | 0.5 µg/mL (≈ 1.1 µM) | 0.125 µg/mL (≈ 0.274 µM) | 0.0625 µg/mL (≈ 0.137 µM)
OC(Cn1cncn1)(Cn1cncn1)c1ccc(F)cc1F [FLUCONAZOLE] | 0.25 µg/mL (≈ 0.816 µM) | > 64 µg/mL | 1 µg/mL (≈ 3.27 µM) | 16 µg/mL (≈ 52.2 µM) | 1 µg/mL (≈ 3.27 µM) | 4 µg/mL (≈ 13.1 µM) | 4 µg/mL (≈ 13.1 µM)
